In US20230053607A1, “PESTICIDALLY ACTIVE FUSED BICYCLIC HETEROAROMATIC AMINO COMPOUNDS” (SYNGENTA CROP PROTECTION AG, priority 2019, published 2023):

Key:
Plutella xylostella [1] = test: Plutella xylostella (diamond back moth), 24-well artificial diet, eggs; assay type: in vivo; conditions: 192 h, application rate 200 ppm, 8 days after infestation, 24-well plates, read-out: control in at least one of the categories (mortality or growth inhibition)
Experimental: 24-well microtiter plates with artificial diet were treated with aqueous test solutions prepared from 10′000 ppm DMSO stock solutions by pipetting. After drying, Plutella eggs were pipetted through a plastic stencil onto a gel blotting paper and the plate was closed with it. The samples were assessed for mortality and growth inhibition in comparison to untreated samples 8 days after infestation. The following compounds gave an effect of at least 80% control in at least one of the categories (mortality or growth inhibition) at an application rate of 200 ppm: P1, P2, P3, P7, P10.

Spodoptera littoralis = Spodoptera littoralis (Egyptian cotton leaf worm), cotton leaf discs sprayed, L1 larvae; assay type: in vivo; conditions: foliar, 72 h, application rate 200 ppm, 3 days after infestation, read-out: control in at least one of the categories (mortality, anti-feedant effect or growth inhibition)
Experimental: Cotton leaf discs were placed onto agar in 24-well microtiter plates and sprayed with aqueous test solutions prepared from 10′000 ppm DMSO stock solutions. After drying the leaf discs were infested with five L1 larvae. The samples were assessed for mortality, anti-feeding effect, and growth inhibition in comparison to untreated samples 3 days after infestation. Control of Spodoptera littoralis by a test sample is given when at least one of the categories mortality, anti-feedant effect, and growth inhibition is higher than the untreated sample.

Diabrotica balteata = Diabrotica balteata (corn root worm), maize sprouts sprayed, L2 larvae; assay type: in vivo; conditions: 96 h, application rate 200 ppm, 4 days after infestation, read-out: control in at least one of the categories (mortality or growth inhibition)
Experimental: Maize sprouts placed onto an agar layer in 24-well microtiter plates were treated with aqueous test solutions prepared from 10′000 ppm DMSO stock solutions by spraying. After drying, the plates were infested with L2 larvae (6 to 10 per well). The samples were assessed for mortality and growth inhibition in comparison to untreated samples 4 days after infestation. The following compounds gave an effect of at least 80% control in at least one of the categories (mortality or growth inhibition) at an application rate of 200 ppm: P1, P2, P3, P6, P7, P8, P10.

Chilo suppressalis = Chilo suppressalis (striped rice stemborer), artificial diet, L2 larvae; assay type: in vivo; conditions: 144 h, application rate 200 ppm, 6 days after infestation, read-out: control in at least one of the categories (mortality, anti-feedant effect or growth inhibition)
Experimental: 24-well microtiter plates with artificial diet were treated with aqueous test solutions prepared from 10′000 ppm DMSO stock solutions by pipetting. After drying, the plates were infested with L2 larvae (6-8 per well). The samples were assessed for mortality, anti-feeding effect, and growth inhibition in comparison to untreated samples 6 days after infestation. Control of Chilo suppressalis by a test sample is given when at least one of the categories mortality, anti-feedant effect, and growth inhibition is higher than the untreated sample.

Plutella xylostella [2] = test: Plutella xylostella (diamondback moth), 96-well artificial diet, eggs; assay type: in vivo; conditions: 216 h, application rate 500 ppm, 9 days after infestation, 96-well plates, read-out: control (mortality)
Experimental: 96-well microtiter plates containing artificial diet were treated with aqueous test solutions, prepared from 10′000 ppm DMSO stock solutions, by a liquid handling robot. After drying, eggs (˜30 per well) were infested onto a netted lid which was suspended above the diet. The eggs hatch and L1 larvae move down to the diet. The samples were assessed for mortality 9 days after infestation.

Myzus persicae = Myzus persicae (green peach aphid): feeding/contact activity, sunflower leaf discs; assay type: in vivo; conditions: foliar, 144 h, application rate 200 ppm, 6 days after infestation, mixed ages
Experimental: Sunflower leaf discs were placed onto agar in a 24-well microtiter plate and sprayed with aqueous test solutions prepared from 10′000 ppm DMSO stock solutions. After drying, the leaf discs were infested with an aphid population of mixed ages. The samples were assessed for mortality 6 days after infestation.

melting point [°C] | Compound | percent control (mortality or growth inhibition) at 200 ppm (Plutella xylostella [1]) [%] | percent control (mortality, anti-feedant effect or growth inhibition) at 200 ppm (Spodoptera littoralis) [%] | percent control (mortality or growth inhibition) at 200 ppm (Diabrotica balteata) [%] | further results
– | CC(Nc1snc2c(C(F)(F)F)cc(C(F)(F)F)cc12)c1ncnn1-c1ncccn1 (centres unmarked) [P1, N-[1-(2-pyrimidin-2-yl-1,2,4-triazol-3-yl)ethyl]-5,7-bis(trifluoromethyl)-2,1-benzothiazol-3-amine] | ≥ 80 | ≥ 80 | ≥ 80 | –
– | C[C@H](Nc1snc2c(C(F)(F)F)cc(C(F)(F)F)cc12)c1ncnn1-c1ccc(C#N)cn1 [P2, 6-[5-[(1S)-1-[[5,7-bis(trifluoromethyl)-2,1-benzothiazol-3-yl]amino]ethyl]-1,2,4-triazol-1-yl]pyridine-3-carbonitrile] | ≥ 80 | ≥ 80 | ≥ 80 | –
– | CC(c1ncnn1-c1ccc(C#N)cn1)N(C)c1c(C#N)sc2c(C(F)(F)F)cc(C(F)(F)F)cc12 (centres unmarked) [P3, 6-[5-[1-[[2-cyano-5,7-bis(trifluoromethyl)benzothiophen-3-yl]-methyl-amino]ethyl]-1,2,4-triazol-1-yl]pyridine-3-carbonitrile] | ≥ 80 | – | ≥ 80 | percent control (mortality, anti-feedant effect or growth inhibition) at 200 ppm (Chilo suppressalis): ≥ 80%
192 to 194 | CC(Nc1c(C#N)sc2c(C(F)(F)F)cc(C(F)(F)F)cc12)c1ncnn1-c1ccc(C#N)cn1 (centres unmarked) [P4, 6-[5-[1-[[2-cyano-5,7-bis(trifluoromethyl)benzothiophen-3-yl]amino]ethyl]-1,2,4-triazol-1-yl]pyridine-3-carbonitrile] | – | – | – | –
195 to 197 | COC(=O)c1sc2c(C(F)(F)F)cc(C(F)(F)F)cc2c1NC(C)c1ncnn1-c1ccc(C#N)cn1 (centres unmarked) [P5, methyl 3-[1-[2-(5-cyano-2-pyridyl)-1,2,4-triazol-3-yl]ethylamino]-5,7-bis(trifluoromethyl)benzothiophene-2-carboxylate] | – | – | – | –
– | CC(Nc1nn(C)c2c(C(F)(F)F)cc(C(F)(F)F)cc12)c1ncnn1-c1ncccn1 (centres unmarked) [P6, 1-methyl-N-[1-(2-pyrimidin-2-yl-1,2,4-triazol-3-yl)ethyl]-5,7-bis(trifluoromethyl)indazol-3-amine] | – | ≥ 80 | ≥ 80 | percent control (mortality, anti-feedant effect or growth inhibition) at 200 ppm (Chilo suppressalis): ≥ 80%
– | CC(c1nccnc1-c1ncccn1)N(CC1CC1)c1nn(C)c2c(C(F)(F)F)cc(C(F)(F)F)cc12 (centres unmarked) [P7, N-(cyclopropylmethyl)-1-methyl-N-[1-(3-pyrimidin-2-ylpyrazin-2-yl)ethyl]-5,7-bis(trifluoromethyl)indazol-3-amine] | ≥ 80 | ≥ 80 | ≥ 80 | percent control (mortality, anti-feedant effect or growth inhibition) at 200 ppm (Chilo suppressalis): ≥ 80%
– | CC(c1nccnc1-c1ncccn1)N(CC1CC1)c1nn(C)c2c(Cl)cc(C(F)(F)F)cc12 (centres unmarked) [P8, 7-chloro-N-(cyclopropylmethyl)-1-methyl-N-[1-(3-pyrimidin-2-ylpyrazin-2-yl)ethyl]-5-(trifluoromethyl)indazol-3-amine] | – | ≥ 80 | ≥ 80 | mortality at 500 ppm (Plutella xylostella [2]): ≥ 80%
160 to 163 | CC(Nc1noc2c(Cl)cc(C(F)(F)F)cc12)c1nc(Br)nn1-c1ncccn1 (centres unmarked) [P9, N-[1-(5-bromo-2-pyrimidin-2-yl-1,2,4-triazol-3-yl)ethyl]-7-chloro-5-(trifluoromethyl)-1,2-benzoxazol-3-amine] | – | – | – | –
– | CC(Nc1nn(C)c2c(C(F)(F)F)cc(C(F)(F)F)cc12)c1nc(Br)nn1-c1ncccn1 (centres unmarked) [P10, N-[1-(5-bromo-2-pyrimidin-2-yl-1,2,4-triazol-3-yl)ethyl]-1-methyl-5,7-bis(trifluoromethyl)indazol-3-amine] | ≥ 80 | – | ≥ 80 | mortality at 500 ppm (Plutella xylostella [2]): ≥ 80%; percent control (mortality, anti-feedant effect or growth inhibition) at 200 ppm (Chilo suppressalis): ≥ 80%
262 to 264 | CC(Nc1nn(C)c2c(Cl)cc(C(F)(F)F)cc12)c1nc(Br)nn1-c1ncccn1 (centres unmarked) [P11, N-[1-(5-bromo-2-pyrimidin-2-yl-1,2,4-triazol-3-yl)ethyl]-7-chloro-1-methyl-5-(trifluoromethyl)indazol-3-amine] | – | – | – | –
– | CC(Nc1noc2c(F)cc(F)cc12)c1nccnc1-n1ccnn1 (centres unmarked) [P12, 5,7-difluoro-N-[1-[3-(triazol-1-yl)pyrazin-2-yl]ethyl]-1,2-benzoxazol-3-amine] | – | – | – | mortality at 200 ppm (Myzus persicae): ≥ 80%
199 to 201 | CC(Nc1noc2c(F)cc(F)cc12)c1nccnc1-n1nccn1 (centres unmarked) [P13, 5,7-difluoro-N-[1-[3-(triazol-2-yl)pyrazin-2-yl]ethyl]-1,2-benzoxazol-3-amine] | – | – | – | –
175 to 177 | CC(Nc1noc2ccc(Br)cc12)c1ncnn1-c1ccc(C#N)cn1 (centres unmarked) [P16, 6-[5-[1-[(5-bromo-1,2-benzoxazol-3-yl)amino]ethyl]-1,2,4-triazol-1-yl]pyridine-3-carbonitrile] | – | – | – | –
233 to 235 | CC(Nc1noc2ccc(Br)cc12)c1ncnn1-c1ncccn1 (centres unmarked) [P17, 5-bromo-N-[1-(2-pyrimidin-2-yl-1,2,4-triazol-3-yl)ethyl]-1,2-benzoxazol-3-amine] | – | – | – | –
– | COC(=O)c1cc(Cl)cc2c(N[C@@H](C)c3ncnn3-c3ccc(C#N)cn3)csc12 [P18, methyl 5-chloro-3-[[(1S)-1-[2-(5-cyano-2-pyridyl)-1,2,4-triazol-3-yl]ethyl]amino]benzothiophene-7-carboxylate] | – | – | – | mortality at 500 ppm (Plutella xylostella [2]): ≥ 80%
